Holding throughout (assay type): functional
Assay [1] has as its system Bacillus subtilis. Description: Antimicrobial activity against Bacillus subtilis ATCC 6633 assessed as inhibition of microbial growth incubated for 24 hrs by broth dilution method. (In general: Dilution methods test growth across graded concentrations, often in twofold steps.)
Assay [2] deals with Pseudomonas aeruginosa. The assay can be described thus: Antimicrobial activity against Pseudomonas aeruginosa ATCC 10145 assessed as inhibition of microbial growth incubated for 24 hrs by broth dilution method.
Assay [3] concerns Staphylococcus aureus. The assay can be described thus: Antimicrobial activity against Staphylococcus aureus ATCC 25923 assessed as inhibition of microbial growth incubated for 24 hrs by broth dilution method.
For another assay, the system named is Klebsiella pneumoniae. Description: Antimicrobial activity against Klebsiella pneumoniae ATCC 10031 assessed as inhibition of microbial growth incubated for 24 hrs by broth dilution method.
The test system of assay [4] is Escherichia coli. Description: Antimicrobial activity against Escherichia coli ATCC 10536 assessed as inhibition of microbial growth incubated for 24 hrs by broth dilution method.
The subject of the next assay is Candida tropicalis. Description: Antimicrobial activity against Candida tropicalis ATCC 750 assessed as inhibition of microbial growth incubated for 72 hrs by broth dilution method. As to conditions: ATCC 750, 72 h.
Assay [5] relates to Escherichia coli. Description: Bactericidal activity against Escherichia coli ATCC 10536 assessed as microbial killing during 18 hrs post sub-culture onto drug-free solid media by broth dilution method. As to conditions: ATCC 10536, 18 h, read-out: MBC99.9.
In assay [6] the test system is Bacillus subtilis. Description: Bactericidal activity against Bacillus subtilis ATCC 6633 assessed as microbial killing during 18 hrs post sub-culture onto drug-free solid media by broth dilution method. The note with it: ATCC 6633, 18 h, read-out: MBC99.9.
In the next assay the test system is Candida albicans. Description: Antimicrobial activity against Candida albicans ATCC 10231 assessed as inhibition of microbial growth incubated for 72 hrs by broth dilution method. The note with it: ATCC 10231, 72 h.
Assay [7] concerns Staphylococcus aureus. The assay can be described thus: Bactericidal activity against Staphylococcus aureus ATCC 25923 assessed as microbial killing during 18 hrs post sub-culture onto drug-free solid media by broth dilution method. As to conditions: ATCC 25923, 18 h, read-out: MBC99.9.
Assay [8] has as its system Pseudomonas aeruginosa. The assay can be described thus: Bactericidal activity against Pseudomonas aeruginosa ATCC 10145 assessed as microbial killing during 18 hrs post sub-culture onto drug-free solid media by broth dilution method. The note with it: ATCC 10145, 18 h, read-out: MBC99.9.

Values after ≈ are worked out from the molar mass of the structure shown.

Broadly, the MIC is the lowest concentration found to suppress growth.

In the case of GENTAMICIN SULFATE, the MIC in the assay on Bacillus subtilis [1], in the assay with Pseudomonas aeruginosa [2], in the assay with Staphylococcus aureus [3], in the assay with Klebsiella pneumoniae and in the assay with Escherichia coli [4] was less than 0.017 µM each time.

`O=c1c2c(oc3ccc(Cl)cc13)-c1ccccc1OCCCO2`: the MIC in the assay with Candida tropicalis was greater than 0.609 µM; with Bacillus subtilis [1] (ATCC 6633, 24 h), 0.077 µM; in the assay on Pseudomonas aeruginosa [2] (ATCC 10145, 24 h), 0.06 µM; in the assay with Candida albicans, greater than 0.609 µM; in the assay with Staphylococcus aureus [3] (ATCC 25923, 24 h) it was 0.092 µM; in the assay with Klebsiella pneumoniae (ATCC 10031, 24 h), 0.106 µM. The minimum inhibitory concentration (MIC) with Escherichia coli [4] (ATCC 10536, 24 h) stood at 0.045 µM. Moreover, the MBC with Escherichia coli [5] is 0.03 µM (≈ 0.00986 µg/mL); in the assay with Bacillus subtilis [6], 0.075 µM (≈ 0.0247 µg/mL); with Staphylococcus aureus [7] it was 0.051 µM (≈ 0.0168 µg/mL); in the assay with Pseudomonas aeruginosa [8] it was 0.03 µM (≈ 0.00986 µg/mL).

Consider `O=c1c2c(oc3ccc(F)cc13)-c1ccccc1OCCCCO2`, for which the minimum inhibitory concentration (MIC) was greater than 0.613 µM with Candida tropicalis; 0.092 µM with Bacillus subtilis [1] (ATCC 6633, 24 h); 0.076 µM with Pseudomonas aeruginosa [2] (ATCC 10145, 24 h); greater than 0.613 µM with Candida albicans; 0.153 µM in the assay on Staphylococcus aureus [3] (ATCC 25923, 24 h); 0.046 µM with Klebsiella pneumoniae (ATCC 10031, 24 h). Also, the MIC with Escherichia coli [4] (ATCC 10536, 24 h) stood at 0.062 µM. In addition, the MBC with Escherichia coli [5] came out at 0.055 µM (≈ 0.0179 µg/mL); with Bacillus subtilis [6], 0.04 µM (≈ 0.0131 µg/mL); in the assay on Staphylococcus aureus [7] it was 0.081 µM (≈ 0.0264 µg/mL); in the assay with Pseudomonas aeruginosa [8] it was 0.03 µM (≈ 0.00979 µg/mL).

In the case of `O=c1c(O)c(-c2ccccc2O)oc2ccc(F)cc12`, the minimal inhibitory concentration (MIC) with Candida tropicalis was greater than 0.735 µM; in the assay with Bacillus subtilis [1] (ATCC 6633, 24 h), 0.167 µM; with Pseudomonas aeruginosa [2] (ATCC 10145, 24 h), 0.275 µM; in the assay with Candida albicans, greater than 0.735 µM; in the assay on Staphylococcus aureus [3] (ATCC 25923, 24 h), 0.259 µM; in the assay with Klebsiella pneumoniae (ATCC 10031, 24 h) it was 0.202 µM. The MIC in the assay with Escherichia coli [4] (ATCC 10536, 24 h) is 0.22 µM.

Turning to `O=c1c(O)c(-c2ccccc2O)oc2ccc(Br)cc12`, the MIC is greater than 0.602 µM in the assay on Candida tropicalis; 0.167 µM in the assay on Bacillus subtilis [1] (ATCC 6633, 24 h); 0.12 µM in the assay on Pseudomonas aeruginosa [2] (ATCC 10145, 24 h); greater than 0.602 µM in the assay with Candida albicans; 0.152 µM in the assay on Staphylococcus aureus [3] (ATCC 25923, 24 h); 0.135 µM with Klebsiella pneumoniae (ATCC 10031, 24 h). Also, in the assay on Escherichia coli [4] (ATCC 10536, 24 h), the MIC is 0.135 µM.

As for `O=c1c2c(oc3ccc(Br)cc13)-c1ccccc1OCCCO2`, the MIC with Candida tropicalis is greater than 0.537 µM; in the assay with Bacillus subtilis [1] (ATCC 6633, 24 h) it was 0.04 µM; in the assay with Pseudomonas aeruginosa [2] (ATCC 10145, 24 h), 0.04 µM; in the assay on Candida albicans, greater than 0.537 µM; in the assay on Staphylococcus aureus [3] (ATCC 25923, 24 h) it was 0.053 µM; in the assay with Klebsiella pneumoniae (ATCC 10031, 24 h), 0.026 µM. In the assay with Escherichia coli [4] (ATCC 10536, 24 h), the minimal inhibitory concentration (MIC) stood at 0.032 µM. The MBC with Escherichia coli [5] came out at 0.027 µM (≈ 0.0101 µg/mL); in the assay with Bacillus subtilis [6] it was 0.025 µM (≈ 0.00933 µg/mL); in the assay with Staphylococcus aureus [7] it was 0.025 µM (≈ 0.00933 µg/mL); with Pseudomonas aeruginosa [8], 0.037 µM (≈ 0.0138 µg/mL).

For the molecule `O=c1c2c(oc3ccccc13)-c1ccccc1OCCCO2`, the MIC in the assay on Candida tropicalis was greater than 0.68 µM; with Bacillus subtilis [1] (ATCC 6633, 24 h), 0.085 µM; with Pseudomonas aeruginosa [2] (ATCC 10145, 24 h), 0.136 µM; in the assay on Candida albicans, greater than 0.68 µM; with Staphylococcus aureus [3] (ATCC 25923, 24 h), 0.272 µM; in the assay with Klebsiella pneumoniae (ATCC 10031, 24 h) it was 0.102 µM. For the same molecule, the minimum inhibitory concentration (MIC) with Escherichia coli [4] (ATCC 10536, 24 h) is 0.051 µM. In addition, the MBC in the assay with Escherichia coli [5] stood at 0.052 µM (≈ 0.0153 µg/mL); in the assay with Bacillus subtilis [6], 0.034 µM (≈ 0.01 µg/mL); in the assay on Staphylococcus aureus [7] it was 0.136 µM (≈ 0.04 µg/mL); in the assay with Pseudomonas aeruginosa [8] it was 0.084 µM (≈ 0.0247 µg/mL).

In the case of `O=c1c(O)c(-c2ccccc2O)oc2ccccc12`, the MIC in the assay on Candida tropicalis is greater than 0.787 µM; in the assay with Bacillus subtilis [1] (ATCC 6633, 24 h), 0.218 µM; in the assay on Pseudomonas aeruginosa [2] (ATCC 10145, 24 h) it was 0.157 µM; in the assay on Candida albicans, greater than 0.787 µM; with Staphylococcus aureus [3] (ATCC 25923, 24 h), 0.198 µM; with Klebsiella pneumoniae (ATCC 10031, 24 h), 0.177 µM. In the assay with Escherichia coli [4] (ATCC 10536, 24 h), the minimum inhibitory concentration (MIC) stood at 0.177 µM.

Regarding `O=c1c2c(oc3ccc(F)cc13)-c1ccccc1OCCCCCO2`, the minimal inhibitory concentration (MIC) with Candida tropicalis is greater than 0.588 µM; in the assay on Bacillus subtilis [1] (ATCC 6633, 24 h) it was 0.117 µM; in the assay on Pseudomonas aeruginosa [2] (ATCC 10145, 24 h), 0.073 µM; with Candida albicans, greater than 0.588 µM; in the assay with Staphylococcus aureus [3] (ATCC 25923, 24 h), 0.132 µM; in the assay with Klebsiella pneumoniae (ATCC 10031, 24 h), 0.088 µM. In addition, the MIC in the assay with Escherichia coli [4] (ATCC 10536, 24 h) was 0.102 µM. Also, the MBC with Escherichia coli [5] was determined as 0.074 µM (≈ 0.0252 µg/mL); in the assay on Bacillus subtilis [6], 0.039 µM (≈ 0.0133 µg/mL); with Staphylococcus aureus [7] it was 0.11 µM (≈ 0.0374 µg/mL); in the assay with Pseudomonas aeruginosa [8] it was 0.035 µM (≈ 0.0119 µg/mL).

For the molecule `O=c1c2c(oc3ccc(Br)cc13)-c1ccccc1OCCCCCO2`, the minimal inhibitory concentration (MIC) with Candida tropicalis is greater than 0.5 µM; in the assay on Bacillus subtilis [1] (ATCC 6633, 24 h) it was 0.063 µM; with Pseudomonas aeruginosa [2] (ATCC 10145, 24 h), 0.062 µM; with Candida albicans, greater than 0.5 µM; in the assay with Staphylococcus aureus [3] (ATCC 25923, 24 h) it was 0.051 µM; in the assay with Klebsiella pneumoniae (ATCC 10031, 24 h), 0.037 µM. The minimal inhibitory concentration (MIC) in the assay with Escherichia coli [4] (ATCC 10536, 24 h) is 0.025 µM. Moreover, the MBC amounted to 0.02 µM (≈ 0.00803 µg/mL) in the assay with Escherichia coli [5], 0.035 µM (≈ 0.014 µg/mL) with Bacillus subtilis [6], 0.04 µM (≈ 0.0161 µg/mL) with Staphylococcus aureus [7] and 0.05 µM (≈ 0.0201 µg/mL) in the assay on Pseudomonas aeruginosa [8].

Take `O=c1c2c(oc3ccccc13)-c1ccccc1OCCCCO2`: the minimal inhibitory concentration (MIC) was greater than 0.649 µM in the assay on Candida tropicalis; 0.064 µM in the assay on Bacillus subtilis [1] (ATCC 6633, 24 h); 0.113 µM with Pseudomonas aeruginosa [2] (ATCC 10145, 24 h); greater than 0.649 µM in the assay with Candida albicans; 0.097 µM in the assay with Staphylococcus aureus [3] (ATCC 25923, 24 h); 0.064 µM in the assay with Klebsiella pneumoniae (ATCC 10031, 24 h). The MIC in the assay with Escherichia coli [4] (ATCC 10536, 24 h) was determined as 0.146 µM. The MBC with Escherichia coli [5] is 0.072 µM (≈ 0.0222 µg/mL); in the assay on Bacillus subtilis [6], 0.064 µM (≈ 0.0197 µg/mL); in the assay on Staphylococcus aureus [7], 0.059 µM (≈ 0.0182 µg/mL); in the assay on Pseudomonas aeruginosa [8], 0.082 µM (≈ 0.0253 µg/mL).

These data come from ChEMBL document CHEMBL3392983, “Synthesis, antimicrobial activity and molecular docking of novel tetracyclic scaffolds incorporating a flavonoid framework with medium sized oxygen heterocycles” (2015).
